Earlier results as cited in EP0306335A1, “Analysis of ions present at low concentrations in solutions containing other ions” (Bradshaw, Jerald S., priority 1987, dated 1989).

Details: ligand as solute in solution

O=C(O)CN(CCN(CC(=O)O)CC(=O)O)CC(=O)O [EDTA, ethylenediaminetetraacetic acid]
log of the equilibrium constant (log K) for interaction with Sr²⁺: 8.73
